Reference: patent US6476004B1, “Pharmaceutical composition” (Mitsubishi Pharma Corporation, priority 1996, dated 2002)

Assay: Behaviour of the aqueous solution of the present compound
Type: physicochemical
Description: When 2-amino-2-[2-(4-octylphenyl)ethyl]propane-1,3-diol or a pharmaceutical acceptable acid addition salt (particularly hydrochloride) is made an aqueous solution, the solution is observed foaming and shown hemolysis and local irritation at 0.01-20% by weight. When the present compound is made the aqueous solution at a higher concentration than 0.1% by weight, the present compound is dissolved by micellization. On the other hand, in the aqueous solution at a lower concentration than 0.05% by weight, the present compound is dissolved as a solution without micellization. […] The present invention characterizes that, by adding a cyclodextrin to the said aqueous solution, the problems such as foaming, hemolysis and local irritation, as well as prevention of crystalline deposits based on micellization, are settled at the same time.

concentration of aqueous solution at which crystalline deposits are found: 0.05-0.1 % by weight
concentration of aqueous solution at which the compound is dissolved by micellization: > 0.1 % by weight
concentration of aqueous solution at which the compound is dissolved without micellization: < 0.05 % by weight
SMILES: CCCCCCCCc1ccc(CCC(N)(CO)CO)cc1.Cl [present compound, 2-amino-2-[2-(4-octylphenyl)ethyl]propane-1,3-diol hydrochloride]
concentration of aqueous solution at which foaming, hemolysis and local irritation are shown: 0.01-20 % by weight
